According to patent publication US5747517A, “Benzylidene rhodanines” (Eli Lilly and Company, priority 1996, dated 1998):

Columns and labels:
[1] = tested on: β-amyloid peptide production in 293 751 SWE and CHO 751 SWE cells; test: β-Amyloid Peptide Production Inhibition Activity In Cells (cellular assay, ELISA normalised to MTT); assay type: cell-based; settings: 10.0 μg/ml; read-out: Percent Inhibition (β-amyloid peptide production)
Experimental: β-AMYLOID PEPTIDE […] (CELLULAR ASSAY)
Two cell lines (human kidney cell line 293 and Chinese hamster ovary cell line CHO) were stably transfected with the gene for APP751 containing the double mutation Lys651 -Met652 to Asn651 -Leu652 (APP-751 numbering) commonly called the Swedish mutation using the method described in Citron, et al., Nature 360:672-674 (1992). The transfected cell lines were designated as 293 751 SWE and CHO 751 SWE, and were plated in Corning 96 well plates at 2.5×10^4 or 1×10^4 cells per well respectively in Dulbecco's minimal essential media (DMEM) plus 10% fetal bovine serum. Following overnight incubation at 37° C. in an incubator equilibrated with 10% carbon dioxide (CO2), the media were removed and replaced with 200 μl per well of media containing an aspartyl protease inhibitor. After a two hour pretreatment period, the media were again removed and replaced with fresh media containing the aspartyl protease inhibitor and the cells were incubated for an additional two hours.
After treatment, plates were centrifuged at 1200 rpm for five minutes at room temperature to pellet cellular debris from the conditioned media. From each well, 100 μl of conditioned media were transferred into an ELISA plate precoated with antibody 266 against β-amyloid peptide(13-28) (Seubert et al., supra. ) and stored at 4° C. overnight. An ELISA assay employing labelled antibody 6C6 (against β-amyloid peptide-1-16) was run the next day to measure the amount of β-amyloid peptide produced.
Cytotoxic effects of the compounds were measured by a modification of the method of Hansen et al., (1989) J. Immun. Meth. 119:203-210. To the cells remaining in the tissue culture plate, was added 25 μl of a 3-(4,5-dimethylthiazol-2-yl)2,5-diphenyltetrazolium bromide (MTT) stock solution (5 mg/ml) to a final concentration of […]. Cells were incubated at 37° C. for one hour, and cellular activity was stopped by the addition of an equal volume of MTT lysis buffer (20% w/v sodium dodecylsulfate in 50% DMF, pH 4.7). Complete extraction was achieved by overnight shaking at room temperature. The difference in the OD562nm and the OD650nm was measured in a Uvmax microplate reader as an indicator of the cellular viability.
The results of the β-amyloid peptide ELISA were fit to a standard curve and expressed as ng/ml β-amyloid peptide. In order to normalize for cytotoxicity, these β-amyloid peptide results were divided by the MTT results and expressed as a percentage of the results from a drug-free control.

[2] = target: T1, cathepsin D (Homo sapiens, UniProt P07339); test: Cathepsin D Inhibition Assay (non-cellular); assay type: biochemical; settings: 10.0 μg/ml; read-out: Percent Inhibition (cathepsin D)
T1 construct: Human brain cathepsin D was purified from frozen post-mortem cortex; from tissue; host or cells: human tissue: brain cortex (Assay 1), liver (Assay 2, bought from Athens Research and Technology) or placenta (Assay 3); the results are not tied to one of them
Source text: First, test compounds which inhibit exemplary aspartyl proteases, particularly cathepsin D, are identified as aspartyl protease inhibitors. As used herein, the term "test system" refers to an assay that is designed to measure aspartyl protease inhibitory activity. A typical test system used for such identification is a non-cellular assay where turnover of the protease substrate is monitored upon the administering of a protease inhibitor. The turnover of the protease […] is then compared to the turnover of substrate in a control test system in which no such aspartyl protease inhibitor has been administered. As used herein, the term "control test system" refers to an identical test system that is run side-by-side with the test system with the exception no aspartyl protease inhibitor is administered. This non-cellular assay is used to identify those test compounds having suitable aspartyl protease inhibitory activity in a non-cellular environment. An example of a non-cellular assay that may be used to determine in vitro aspartyl protease inhibitory activity reacts partially purified human brain cathepsin D with a substrate, e.g., porcine renin tetradecapeptide. The resultant reaction mixture is divided into portions and each portion is incubated for a different period of time. After the reaction is stopped, the turnover of substrate in each portion is determined using reverse-phase high performance liquid chromatography (HPLC). Protease inhibition activity may be calculated based on the rates of substrate turnover. This assay is exemplified in Assay 1, below. A second non-cellular assay for determining in vitro aspartyl protease inhibitory activity utilizes a microtiter plate, where a suitable aspartyl protease, such as a cathepsin D is added to each well together with controls. A suitable fluorometric substrate is added to each well. The resultant reaction mixture is allowed to react for a preselected time, e.g., 30 minutes. After enzyme activity is terminated, the substrate or its product may be determined fluorometrically and then the protease inhibition activity may be calculated based on the rates of substrate turnover. This assay is exemplified in Assay 2, below. CATHEPSIN D INHIBITION ACTIVITY (NON-CELLULAR ASSAY) Human brain cathepsin D was purified from frozen post-mortem cortex substantially in accordance with the method of Nixon and Morotta, (1984) J. Neurochem. 43:507-516. The cortex material was prepared and applied to a DEAE-Sepharose® column. The flow through fraction was dialyzed against 50 mM Tris-HCl, pH 7.5, and applied to concanavalin A Sepharose® and eluted with 50 mM Tris, pH 7.5, 0.5M methyl α-D-mannopyranoside. The eluted cathepsin D activity was dialyzed against 25 mM Tris, pH 7.5, and stored at -40° C. (Con A pool) until use. […] The substrate, a porcine renin tetradecapeptide,was added to each reaction mixture to yield a final concentration of 44 μM in a total volume of 300 μl. The samples were incubated at 37° C. for 0, 10, 20, or 30 minutes, and then boiled for 5 minutes to stop the reaction. The samples were centrifuged in a microcentrifuge for 10 minutes at 14,000 rpm at 4° C. After centrifugation, 200 μL of each reaction was injected onto a C18 reverse phase liquid chromatography column (Vydac, Hesperia, Calif.) with a Perkin Elmer ISS 100 autosampler and eluted with a gradient of 0-50% CH3 CN in 0.1% CF3 CO2 H at 2 ml/min. Peptide product peaks were monitored at 220 nm with a Perkin Elmer LC 95 detector and integrated with Rainin Dynamax software in order to quantitate activity. CATHEPSIN D INHIBITION ACTIVITY (NON-CELLULAR FLUOROMETIC ASSAY) A fluorometric assay was adapted from the method disclosed by Murakami et al., (1981) Anal. Biochem. 110:232-239 for measuring renin activity. […] Compound stocks were prepared by dissolving an aspartyl protease inhibitor in DMSO for each concentration tested in the assay and then 5 μL of compound stock was added to each of the wells prepared above. […]

T1 sequence (P07339 169-412 limits assumed): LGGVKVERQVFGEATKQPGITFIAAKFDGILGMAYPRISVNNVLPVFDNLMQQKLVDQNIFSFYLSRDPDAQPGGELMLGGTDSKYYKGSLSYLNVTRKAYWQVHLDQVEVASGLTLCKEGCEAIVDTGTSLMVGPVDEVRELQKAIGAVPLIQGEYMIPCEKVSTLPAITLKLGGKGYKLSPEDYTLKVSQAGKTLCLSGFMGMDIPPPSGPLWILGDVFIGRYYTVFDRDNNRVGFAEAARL
T1 sequence (P07339 65-162 limits assumed): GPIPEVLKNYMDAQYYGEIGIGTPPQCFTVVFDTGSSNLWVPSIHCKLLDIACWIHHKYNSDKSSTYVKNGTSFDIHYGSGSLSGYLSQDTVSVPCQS

inhibition at 10 µg/mL [2]: 0%
Structure (SMILES): CC(C)(C)c1ccc(Oc2cccc(C=C3SC(=S)N(CCC(=O)O)C3=O)c2)cc1 [Example 8, 5-[[3-[4-(t-butyl)phenoxy]phenyl]methylene]-3-(2-carboxyethyl)-2-thioxo-4-thiazolidinone]
inhibition at 10 µg/mL [1]: 46%
